Entries after “also recorded” stand apart in the source; their conditions may differ.
Assays:
[1] = Wall et al., J. Nat. Prod. 1989; cited from earlier work
[2] = tested on: human progesterone receptor altered at the Tau-1 location; assay: Co-transfection assay in CV-1 cells, progesterone receptor altered at Tau-1, antagonist activity; format: cell-based
In short: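 CV-1 cells co-transfected with RSV-LTR-driven human PR (altered at Tau-1) and a hormone-responsive luciferase reporter; antagonism measured against a fixed agonist concentration. Luciferase in cell extracts read, triplicate points, potency from concentration-response; […].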

T47D cells = assay: Alkaline phosphatase activity in T47D cells (induction and its inhibition); format: cell-based, human; conditions: ligand alone; three days
Excerpt: The functional activities of the cyclocymopol analogues in the human breast cell line, T47D, were also investigated. T47D cells have proven to be a particularly useful model to investigate the molecular actions of sex steroids because they contain endogenous functional receptors for, and respond to, progestins, and their respective antagonists. Moreover, these cells contain exceptionally high titers of progesterone receptors and are exquisitely sensitive to the actions of progestins in a manner quite similar to their actions in normal and neoplastic mammary epithelial cells. In T47D cells, progestins induce de novo synthesis of a plasma-associated alkaline phosphatase, which has been reported to be similar, if not identical, to the alkaline phosphatase present in the normal breast and human milk. These tests were conducted according to the following illustrative example. […] For routine induction of alkaline phosphatase, cells were treated for three days with two media changes and harvested as described below. […] Nuclei were sedimented at 2500 rpm, and the supernatant was saved as cytosol. The protein content of the cytosol was assayed by the method of Bradford. Alkaline phosphatase activity was determined by incubating one volume of cell extract with three volumes of 1 mg/ml p-nitrophenol phosphate prepared in DEAM (1M diethanolamine, pH=9, containing 2 mM magnesium chloride) at room temperature for 20 min. At the end of the incubation time, the reaction was stopped with an equal volume of 1N NaOH. Ten standards of p-nitrophenol were prepared in DEAM buffer and absorbance was read at 405 nm. Alkaline phosphatase activity is expressed as pmol p-nitrophenol formed/min/mg protein.

[3] = molecular target: T1, human progesterone receptor (Homo sapiens, UniProt P06401); assay: Co-transfection (cis-trans) assay in CV-1 cells, agonist and antagonist mode; format: cell-based; design: expressed in transfected cells; host or cells: CV-1 cells (calcium phosphate transfection), whole cell extract; conditions: antagonist mode with 10^-8 M progesterone
T1 sequence (P06401 1-933): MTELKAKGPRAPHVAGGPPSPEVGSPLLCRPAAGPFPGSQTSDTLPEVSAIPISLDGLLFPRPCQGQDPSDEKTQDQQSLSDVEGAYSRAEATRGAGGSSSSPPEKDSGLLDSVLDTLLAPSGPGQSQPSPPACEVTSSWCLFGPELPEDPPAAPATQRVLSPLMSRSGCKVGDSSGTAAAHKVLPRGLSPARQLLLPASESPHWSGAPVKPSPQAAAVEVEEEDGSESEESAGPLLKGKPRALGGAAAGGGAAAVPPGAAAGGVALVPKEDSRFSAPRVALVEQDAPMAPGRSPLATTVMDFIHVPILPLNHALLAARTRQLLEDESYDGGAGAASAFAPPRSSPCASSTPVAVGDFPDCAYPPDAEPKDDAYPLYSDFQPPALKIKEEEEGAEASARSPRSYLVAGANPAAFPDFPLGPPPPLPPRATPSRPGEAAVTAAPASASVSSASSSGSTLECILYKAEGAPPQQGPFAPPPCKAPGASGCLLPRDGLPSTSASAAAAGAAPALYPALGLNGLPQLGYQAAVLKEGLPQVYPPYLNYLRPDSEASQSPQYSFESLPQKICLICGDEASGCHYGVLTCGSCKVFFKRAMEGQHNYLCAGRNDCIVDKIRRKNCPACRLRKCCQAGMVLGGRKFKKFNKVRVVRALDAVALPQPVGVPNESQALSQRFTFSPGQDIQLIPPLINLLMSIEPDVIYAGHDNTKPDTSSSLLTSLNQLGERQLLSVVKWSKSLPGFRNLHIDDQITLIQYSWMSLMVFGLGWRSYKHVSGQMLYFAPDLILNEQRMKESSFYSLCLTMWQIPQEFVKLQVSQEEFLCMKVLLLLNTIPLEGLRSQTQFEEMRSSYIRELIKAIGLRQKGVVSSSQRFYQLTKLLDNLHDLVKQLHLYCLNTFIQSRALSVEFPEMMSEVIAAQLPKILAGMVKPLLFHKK
Excerpt: This assay is described in further detail in U.S. Pat. Nos. 4,981,784 and 5,071,773, which are incorporated herein by reference. The co-transfection assay provides a method for identifying functional ligands (either agonists which mimic, or antagonists which inhibit, the effect of hormones) for ligand-responsive receptor proteins.
The co-transfection assay provides a mechanism to evaluate ability of a compound to function as an agonist or antagonist of the activity modulated by an intracellular receptor. The co-transfection assay mimics an in vivo system in the laboratory. In the co-transfection assay, a cloned gene for an intracellular receptor is introduced by transfection (a procedure to induce cells to take up foreign genes) into a background cell substantially devoid of endogenous intracellular receptors. This introduced gene directs the recipient cells to make the intracellular receptor protein. A second gene is also introduced (co-transfected) into the same cells in conjunction with the intracellular receptor gene. This second gene functions as a reporter for the transcription-modulating activity of the target intracellular receptor. The reporter acts as a surrogate for the products normally expressed by a gene under control of the target receptor and its natural hormone.
A preferred reporter gene is one which expresses the firefly enzyme luciferase. The co-transfection assay can detect small molecule agonists or antagonists of target intracellular receptors. Exposing the cells to an agonist ligand increases reporter activity in the transfected cells that can be conveniently measured, reflecting ligand-dependent, intracellular receptor-mediated increases in reporter transcription. To detect antagonists, the co-transfection assay is carried out in the presence of a constant concentration of an agonist known to induce a defined reporter signal. Increasing concentrations of a test antagonist will decrease the reporter signal. The co-transfection assay is therefore useful to detect both agonists and antagonists of specific intracellular receptors. It determines not only whether a compound interacts with a particular intracellular receptor, but also whether this interaction mimics (agonizes) or blocks (antagonizes) the effects of the natural regulatory molecules on target gene expression.
Co-transfected cells are exposed to a medium to which is added the potential ligand that is being evaluated. If the candidate ligand diffuses into the cell and binds to the receptor and the resulting complex functions as an agonist, it binds to the co-transfected reporter gene and initiates transcription. When that gene is one that expresses, for example, luciferase, luciferase is produced which catalyzes a light-emitting reaction with its substrate luciferin. Thus, after cell lysis and the introduction of luciferin, the amount of light produced relative to the concentration of candidate ligand used in the assay provides a measure of the potency and efficacy of the compound tested. Antagonist activity is evaluated by adding the candidate ligand and a known agonist to the co-transfected cells.
The receptor cDNA was introduced in a mammalian expression vector under the control of the Rous Sarcoma virus LTR. […] A reporter vector was also transfected, containing a firefly luciferase gene under the control of the hormone-responsive promoter. […] The level of luciferase activity was then measured in cell extracts. Light emission is directly proportional to the effectiveness of the hormone-receptor complex in activating gene expression.
A total of three replicates per concentration point were tested for each compound, and the EC50 was calculated for each positive response. Both agonist and antagonist activity for each test compound was determined in parallel.

[4] = molecular target: T1, human progesterone receptor; assay: Progesterone receptor binding (displacement of 3H-progesterone, whole cell extract of transfected CV-1 cells); design: expressed in transfected cells; host or cells: CV-1 cells (calcium phosphate transfection), whole cell extract

| IC50 ([2]; concentration required to reduce the maximal response by 50%, read-out: Potency (IC50), CV-1 cells) | Progesterone receptor agonist/antagonist activity [3] | Kd [4] | Compound | Antimutagen activity [1] | Efficacy (% maximal response relative to RU-486), CV-1 cells ([2]; antagonist activity, relative to RU-486) | Agonist activity, alkaline phosphatase induction (T47D cells) |
| --- | --- | --- | --- | --- | --- | --- |
| – | – | – | CC1(C)[C@@H](Br)CC[C@@]2(C)Oc3cc(Br)c(O)cc3C[C@@H]12 [cymobarbatol] | highly active antimutagens | – | – |
| > 10000 nM | progesterone receptor agonist activity | 325 nM | C=C1CC[C@@H](Br)C(C)(C)[C@H]1Cc1cc(OC)c(Br)cc1O [SO-54, (3S)-cyclocymopol monomethyl ether] | – | < 20% | functional agonists; also recorded: increased the activity of intracellular alkaline phosphatase in a concentration-dependent manner |
| – | – | – | 4-isocymobarbatol | highly active antimutagens | – | – |
